Measurements as given in patent US11306084B2, “Integrin antagonists” (Saint Louis University, priority 2016, dated 2022).
Where a name gives a salt, the structure may show the parent alone.

Tests used:
Format in all cases: binding
[1] = target: T1, Recombinant human integrin ανβ6 (Homo sapiens, UniProt P06756+P18564); assay: Solid Phase Receptor Assay (SPRA) for ανβ6 function; conditions: for IC50: plate-bound human LAP, read-out: αvβ6 SPRA IC50
T1 construct: purchased R&D Systems 3817-AV

[2] = target: T2, Recombinant human integrin ανβ8 (Homo sapiens, UniProt P06756+P26012); assay: Solid Phase Receptor Assay (SPRA) for ανβ8 function; conditions: for IC50: plate-bound human LAP, read-out: αvβ8 SPRA IC50
T2 construct: purchased R&D Systems 4135-AV

[3] = target: T3, Recombinant human integrin α5β1 (Homo sapiens, UniProt P05556+P08648); assay: Solid Phase Receptor Assay (SPRA) for α5β1 function; conditions: for IC50: plate-bound human fibronectin
T3 construct: purchased R&D Systems 3230-A5

[4] = target: T4, Recombinant human integrin ανβ1 (Homo sapiens, UniProt P05556+P06756); assay: Solid Phase Receptor Assay (SPRA) for ανβ1 function; conditions: for IC50: plate-bound human fibronectin, read-out: αvβ1 SPRA IC50
T4 construct: purchased R&D Systems 6579-AV
T4 sequence (P06756 31-992 limits assumed): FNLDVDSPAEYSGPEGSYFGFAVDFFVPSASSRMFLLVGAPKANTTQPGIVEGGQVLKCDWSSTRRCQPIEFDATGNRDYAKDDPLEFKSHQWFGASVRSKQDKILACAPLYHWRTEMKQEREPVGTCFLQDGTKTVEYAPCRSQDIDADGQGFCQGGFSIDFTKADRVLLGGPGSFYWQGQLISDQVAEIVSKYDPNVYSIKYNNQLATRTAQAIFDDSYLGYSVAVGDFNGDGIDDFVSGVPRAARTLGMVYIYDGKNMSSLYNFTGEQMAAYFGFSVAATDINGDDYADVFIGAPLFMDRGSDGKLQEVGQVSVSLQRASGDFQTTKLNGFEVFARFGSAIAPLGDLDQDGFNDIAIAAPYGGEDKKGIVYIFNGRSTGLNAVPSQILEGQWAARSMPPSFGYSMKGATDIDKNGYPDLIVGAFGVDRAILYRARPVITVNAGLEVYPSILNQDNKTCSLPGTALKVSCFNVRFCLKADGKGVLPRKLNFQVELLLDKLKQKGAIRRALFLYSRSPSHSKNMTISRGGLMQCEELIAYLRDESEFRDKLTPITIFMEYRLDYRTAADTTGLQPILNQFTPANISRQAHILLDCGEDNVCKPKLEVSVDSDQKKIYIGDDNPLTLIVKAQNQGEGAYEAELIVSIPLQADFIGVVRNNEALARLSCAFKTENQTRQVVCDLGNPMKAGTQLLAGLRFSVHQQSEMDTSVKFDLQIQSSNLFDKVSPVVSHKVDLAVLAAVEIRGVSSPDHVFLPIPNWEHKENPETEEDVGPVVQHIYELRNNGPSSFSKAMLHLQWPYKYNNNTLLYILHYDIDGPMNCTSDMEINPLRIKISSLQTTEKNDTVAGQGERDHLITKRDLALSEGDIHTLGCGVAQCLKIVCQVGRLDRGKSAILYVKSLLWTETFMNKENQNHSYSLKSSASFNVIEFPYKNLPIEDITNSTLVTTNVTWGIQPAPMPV
T4 sequence (P05556 21-728 limits assumed): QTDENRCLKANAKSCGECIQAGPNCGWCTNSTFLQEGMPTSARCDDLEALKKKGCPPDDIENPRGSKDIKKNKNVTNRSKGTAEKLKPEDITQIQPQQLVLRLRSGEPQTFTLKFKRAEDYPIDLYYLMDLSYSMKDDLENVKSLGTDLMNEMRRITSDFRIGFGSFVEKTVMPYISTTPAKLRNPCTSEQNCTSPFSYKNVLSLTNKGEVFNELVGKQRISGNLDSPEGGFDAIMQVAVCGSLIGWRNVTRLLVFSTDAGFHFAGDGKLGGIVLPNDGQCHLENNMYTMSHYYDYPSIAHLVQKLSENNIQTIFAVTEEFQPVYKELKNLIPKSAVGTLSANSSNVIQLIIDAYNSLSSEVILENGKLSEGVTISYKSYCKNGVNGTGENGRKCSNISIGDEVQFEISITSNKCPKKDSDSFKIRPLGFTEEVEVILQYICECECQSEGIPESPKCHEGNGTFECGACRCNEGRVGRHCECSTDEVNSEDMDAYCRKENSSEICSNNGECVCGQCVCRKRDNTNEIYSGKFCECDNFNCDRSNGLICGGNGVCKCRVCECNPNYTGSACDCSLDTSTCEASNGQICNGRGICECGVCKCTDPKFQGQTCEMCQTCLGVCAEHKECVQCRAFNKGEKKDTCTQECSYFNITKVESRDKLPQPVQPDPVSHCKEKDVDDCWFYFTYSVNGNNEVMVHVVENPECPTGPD

T3 sequence (P08648 42-995 limits assumed): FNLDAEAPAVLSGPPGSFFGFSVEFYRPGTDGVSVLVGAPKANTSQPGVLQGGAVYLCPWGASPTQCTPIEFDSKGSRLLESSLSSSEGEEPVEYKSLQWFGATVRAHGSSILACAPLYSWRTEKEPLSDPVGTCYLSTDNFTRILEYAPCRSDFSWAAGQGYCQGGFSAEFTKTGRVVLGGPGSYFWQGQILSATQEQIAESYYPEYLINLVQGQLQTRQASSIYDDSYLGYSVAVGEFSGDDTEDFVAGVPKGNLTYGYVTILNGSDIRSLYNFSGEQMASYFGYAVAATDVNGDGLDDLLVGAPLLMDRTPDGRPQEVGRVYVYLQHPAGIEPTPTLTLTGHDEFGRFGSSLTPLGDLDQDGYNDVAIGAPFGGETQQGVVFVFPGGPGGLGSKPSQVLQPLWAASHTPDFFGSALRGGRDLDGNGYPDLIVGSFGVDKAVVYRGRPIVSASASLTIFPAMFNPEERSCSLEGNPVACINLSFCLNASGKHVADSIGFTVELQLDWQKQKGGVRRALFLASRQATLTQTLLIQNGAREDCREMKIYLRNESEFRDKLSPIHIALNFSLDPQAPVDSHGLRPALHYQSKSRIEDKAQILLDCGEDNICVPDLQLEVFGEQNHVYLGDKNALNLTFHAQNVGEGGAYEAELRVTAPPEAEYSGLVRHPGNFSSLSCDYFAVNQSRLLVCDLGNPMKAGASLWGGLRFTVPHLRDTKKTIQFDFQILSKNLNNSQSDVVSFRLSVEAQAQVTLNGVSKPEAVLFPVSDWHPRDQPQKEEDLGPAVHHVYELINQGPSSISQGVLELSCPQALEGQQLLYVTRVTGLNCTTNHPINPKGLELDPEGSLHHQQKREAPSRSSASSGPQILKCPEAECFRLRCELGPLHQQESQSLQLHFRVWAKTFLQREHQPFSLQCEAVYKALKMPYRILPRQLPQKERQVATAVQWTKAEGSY
T3 sequence (P05556 21-728 limits assumed): as the sequence (P05556 21-728 limits assumed) above
T1 sequence (P06756 31-992 limits assumed): as the sequence (P06756 31-992 limits assumed) above
T1 sequence (P18564 22-707 limits assumed): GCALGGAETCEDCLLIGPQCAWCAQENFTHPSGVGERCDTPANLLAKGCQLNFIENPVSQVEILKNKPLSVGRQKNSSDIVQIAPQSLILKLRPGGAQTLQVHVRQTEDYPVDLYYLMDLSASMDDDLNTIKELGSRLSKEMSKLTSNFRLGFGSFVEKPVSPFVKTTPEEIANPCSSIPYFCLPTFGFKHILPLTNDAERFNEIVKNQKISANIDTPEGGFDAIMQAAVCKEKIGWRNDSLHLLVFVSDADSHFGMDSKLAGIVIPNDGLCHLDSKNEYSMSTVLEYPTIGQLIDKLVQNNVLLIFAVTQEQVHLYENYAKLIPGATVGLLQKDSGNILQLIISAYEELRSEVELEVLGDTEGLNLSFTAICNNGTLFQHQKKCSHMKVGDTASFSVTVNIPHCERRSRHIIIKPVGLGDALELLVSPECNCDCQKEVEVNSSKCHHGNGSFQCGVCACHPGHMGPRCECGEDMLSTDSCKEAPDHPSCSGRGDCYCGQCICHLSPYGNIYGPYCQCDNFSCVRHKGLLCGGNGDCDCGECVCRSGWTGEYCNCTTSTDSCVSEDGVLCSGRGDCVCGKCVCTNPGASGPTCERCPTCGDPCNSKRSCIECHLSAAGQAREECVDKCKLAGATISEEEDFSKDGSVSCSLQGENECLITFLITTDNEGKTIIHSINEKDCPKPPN
T2 sequence (P06756 31-992 limits assumed): as the sequence (P06756 31-992 limits assumed) above
T2 sequence (P26012 43-684 limits assumed): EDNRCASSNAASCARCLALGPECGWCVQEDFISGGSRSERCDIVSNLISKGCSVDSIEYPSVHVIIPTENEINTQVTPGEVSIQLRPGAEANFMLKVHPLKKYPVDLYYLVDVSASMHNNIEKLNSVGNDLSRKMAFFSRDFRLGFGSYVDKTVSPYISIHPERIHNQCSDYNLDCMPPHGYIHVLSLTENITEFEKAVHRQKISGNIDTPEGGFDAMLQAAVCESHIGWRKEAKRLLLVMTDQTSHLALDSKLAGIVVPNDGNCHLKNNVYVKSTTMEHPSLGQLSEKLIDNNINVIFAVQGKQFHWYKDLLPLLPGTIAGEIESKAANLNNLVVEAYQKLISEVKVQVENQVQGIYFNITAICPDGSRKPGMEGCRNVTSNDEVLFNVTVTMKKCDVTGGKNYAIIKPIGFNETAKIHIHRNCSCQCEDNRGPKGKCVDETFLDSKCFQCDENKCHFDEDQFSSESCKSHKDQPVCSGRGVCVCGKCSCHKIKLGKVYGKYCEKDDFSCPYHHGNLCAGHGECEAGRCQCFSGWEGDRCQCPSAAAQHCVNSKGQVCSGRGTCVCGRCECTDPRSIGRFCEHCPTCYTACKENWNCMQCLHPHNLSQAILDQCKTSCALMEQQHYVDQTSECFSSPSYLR

| Structure (SMILES) | IC50 [1] [nM] | IC50 [2] [nM] | IC50 [3] [nM] | IC50 [4] [nM] | inhibitory activity at ανβ6 (in words) [1] | inhibitory activity at ανβ8 (in words) [2] | inhibitory activity at α5β1 (in words) [3] | inhibitory activity at ανβ1 (in words) [4] |
| --- | --- | --- | --- | --- | --- | --- | --- | --- |
| Cn1nc(CC(CC(=O)O)c2cc(Br)cc(C(C)(C)C(F)(F)F)c2)cc1OCCc1ccc2c(n1)NCCC2 (stereo not shown) [Example 26, 3-[3-bromo-5-(2,2,2-trifluoro-1,1-dimethyl-ethyl)phenyl]-4-[1-methyl-5-[2-(5,6,7,8-tetrahydro-1,8-naphthyridin-2-yl)ethoxy]pyrazol-3-yl]butanoic Acid] | 45 | 9.3 | 16 | 6.8 |  |  |  |  |
| Cn1nc(CC(CC(=O)O)c2cc(Cl)cc(C(C)(C)C(F)(F)F)c2)cc1OCCc1ccc2c(n1)NCCC2 (stereo not shown) [Example 27, 3-(3-chloro-5-(1,1,1-trifluoro-2-methylpropan-2-yl)phenyl)-4-(1-methyl-5-(2-(5,6,7,8-tetrahydro-1,8-naphthyridin-2-yl)ethoxy)-1H-pyrazol-3-yl)butanoic Acid] | 47 | 11 | 18 | 4.4 |  |  |  |  |
| Cn1nc(CC(CC(=O)O)c2cc(C#N)cc(C(C)(C)C(F)(F)F)c2)cc1OCCc1ccc2c(n1)NCCC2 (stereo not shown) [Example 28, 3-[3-cyano-5-(2,2,2-trifluoro-1,1-dimethyl-ethyl)phenyl]-4-[1-methyl-5-[2-(5,6,7,8-tetrahydro-1,8-naphthyridin-2-yl)ethoxyl]pyrazol-3-yl]butanoic Acid Trifluoroacetate] | 15 | 3.5 | 8.5 | 3.9 |  |  |  |  |
| COCC1(c2cc(Cl)cc(C(CC(=O)O)Cc3cc(OCCc4ccc5c(n4)NCCC5)n(C)n3)c2)CCOCC1 (stereo not shown) [Example 29, 3-(3-chloro-5-(4-(methoxymethyl)tetrahydro-2H-pyran-4-yl)phenyl)-4-(1-methyl-5-(2-(5,6,7,8-tetrahydro-1,8-naphthyridin-2-yl)ethoxy)-1H-pyrazol-3-yl)butanoic Acid] | 52 | 9.5 | 5.1 | 9.4 |  |  |  |  |
| COCC1(c2cc(F)cc(C(CC(=O)O)Cc3cc(OCCc4ccc5c(n4)NCCC5)n(C)n3)c2)CCOCC1 (stereo not shown) [Example 30, 3-(3-fluoro-5-(4-(methoxymethyl)tetrahydro-2H-pyran-4-yl)phenyl)-4-(1-methyl-5-(2-(5,6,7,8-tetrahydro-1,8-naphthyridin-2-yl)ethoxy)-1H-pyrazol-3-yl)butanoic Acid] | 180 | 81 | 12 | 6.6 |  |  |  |  |
| COCC1(c2cc(C(CC(=O)O)Cc3cc(OCCc4ccc5c(n4)NCCC5)n(C)n3)cc(C(F)(F)F)c2)CCOCC1 (stereo not shown) [Example 31, 3-(3-(4-(methoxymethyl)tetrahydro-2H-pyran-4-yl)-5-(trifluoromethyl)phenyl)-4-(1-methyl-5-(2-(5,6,7,8-tetrahydro-1,8-naphthyridin-2-yl)ethoxy)-1H-pyrazol-3-yl)butanoic Acid] | 63 | 9.9 | 12 | 1.4 |  |  |  |  |
| COc1ccc(C(C)(C)C)cc1C(CC(=O)O)Cc1cc(OCCc2ccc3c(n2)NCCC3)n(C)n1 (stereo not shown) [Example 32, 3-(5-(tert-butyl)-2-methoxyphenyl)-4-(1-methyl-5-(2-(5,6,7,8-tetrahydro-1,8-naphthyridin-2-yl)ethoxy)-1H-pyrazol-3-yl)butanoic Acid] | 230 | 87 | 33 | 0.9 | low activity | low activity | high inhibitory activity | high inhibitory activity |
| COc1c(C(CC(=O)O)Cc2cc(OCCc3ccc4c(n3)NCCC4)n(C)n2)cccc1C(C)(C)C (stereo not shown) [Example 33, 3-(3-(tert-butyl)-2-methoxyphenyl)-4-(1-methyl-5-(2-(5,6,7,8-tetrahydro-1,8-naphthyridin-2-yl)ethoxy)-1H-pyrazol-3-yl)butanoic Acid] | 2400 | 970 | 3900 | 2400 |  |  |  |  |
| COc1cc(C(C)(C)C)ccc1C(CC(=O)O)Cc1cc(OCCc2ccc3c(n2)NCCC3)n(C)n1 (stereo not shown) [Example 34, 3-(4-(tert-butyl)-2-methoxyphenyl)-4-(1-methyl-5-(2-(5,6,7,8-tetrahydro-1,8-naphthyridin-2-yl)ethoxy)-1H-pyrazol-3-yl)butanoic Acid] | 130 | 42 | 550 | 47 |  |  |  |  |
| Cn1nc(CC(CC(=O)O)c2cc(OC(F)(F)F)cc(C(C)(C)C)c2)cc1OCCc1ccc2c(n1)NCCC2 (stereo not shown) [Example 36, 3-[3-tert-butyl-5-(trifluoromethoxy)phenyl]-4-[1-methyl-5-[2-(5,6,7,8-tetrahydro-1,8-naphthyridin-2-yl)ethoxy]pyrazol-3-yl]butanoic Acid] | 120 | 40 | 7.1 | 6.5 |  |  |  |  |
| Cn1nc(CC(CC(=O)O)c2cc(C(C)(C)C)cc(C(F)(F)F)c2)cc1OCCc1ccc2c(n1)NCCC2 (stereo not shown) [Example 37, 3-[3-tert-butyl-5-(trifluoromethyl)phenyl]-4-[1-methyl-5-[2-(5,6,7,8-tetrahydro-1,8-naphthyridin-2-yl)ethoxyl]pyrazol-3-yl]butanoic Acid] | 140 | 18 | 7.9 | 7.5 |  |  |  |  |
| Cn1nc(CC(CC(=O)O)c2cc(F)cc(C(C)(C)C)c2)cc1OCCc1ccc2c(n1)NCCC2 (stereo not shown) [Example 38, 3-(3-(tert-butyl)-5-fluorophenyl)-4-(1-methyl-5-(2-(5,6,7,8-tetrahydro-1,8-naphthyridin-2-yl)ethoxy)-1H-pyrazol-3-yl)butanoic Acid] | 110 | 140 | 23 | 4.5 |  |  |  |  |
| COc1ccc(C(C)C)cc1C(CC(=O)O)Cc1cc(OCCc2ccc3c(n2)NCCC3)n(C)n1 (stereo not shown) [Example 39, 3-(5-isopropyl-2-methoxyphenyl)-4-(1-methyl-5-(2-(5,6,7,8-tetrahydro-1,8-naphthyridin-2-yl)ethoxy)-1H-pyrazol-3-yl)butanoic Acid Trifluoroacetate] | 230 | 110 | 31 | 3.2 |  |  |  |  |
| CC(C)c1cc(Br)cc(C(CC(=O)O)Cc2cc(OCCc3ccc4c(n3)NCCC4)n(C)n2)c1 (stereo not shown) [Example 40, 3-(3-bromo-5-isopropyl-phenyl)-4-[1-methyl-5-[2-(5,6,7,8-tetrahydro-1,8-naphthyridin-2-yl)ethoxyl]pyrazol-3-yl]butanoic acid trifluoroacetate] | 79 | 9 | 21 | 6.3 |  |  |  |  |
| CC(C)(C)c1cc(Br)cc(C(CC(=O)O)Cc2cc(OCCc3ccc4c(n3)NCCC4)n(CC(F)(F)F)n2)c1 (stereo not shown) [Example 41, 3-(3-bromo-5-tert-butyl-phenyl)-4-[5-[2-(5,6,7,8-tetrahydro-1,8-naphthyridin-2-yl)ethoxy]-1-(2,2,2-trifluoroethyl)pyrazol-3-yl]butanoic Acid Trifluoroacetate] | 85 | 6.9 | 6.5 | 4.5 |  |  |  |  |
| Cn1nc(CC(CC(=O)O)c2cc(C(C)(C)C)ccc2O)cc1OCCc1ccc2c(n1)NCCC2 (stereo not shown) [Example 42, 3-(5-tert-butyl-2-hydroxy-phenyl)-4-[1-methyl-5-[2-(5,6,7,8-tetrahydro-1,8-naphthyridin-2-yl)ethoxyl]pyrazol-3-yl]butanoic Acid Sodium Salt] | 20 | 3.1 | 2.1 | 2.4 |  |  |  |  |
| Cn1nc(CC(CC(=O)O)c2cc(C(C)(C)C)ccc2Cl)cc1OCCc1ccc2c(n1)NCCC2 (stereo not shown) [Example 43, 3-(5-(tert-butyl)-2-chlorophenyl)-4-(1-methyl-5-(2-(5,6,7,8-tetrahydro-1,8-naphthyridin-2-yl)ethoxy)-1H-pyrazol-3-yl)butanoic Acid Trifluoroacetate] | 800 | 88 | 77 | 7.3 |  |  |  |  |
| Cc1ccc(C(C)(C)C)cc1C(CC(=O)O)Cc1cc(OCCc2ccc3c(n2)NCCC3)n(C)n1 (stereo not shown) [Example 44, 3-(5-tert-butyl-2-methyl-phenyl)-4-[1-methyl-5-[2-(5,6,7,8-tetrahydro-1,8-naphthyridin-2-yl)ethoxy]pyrazol-3-yl]butanoic Acid Trifluoroacetate] | 7100 | 360 | 230 | 14 |  |  |  |  |
| COc1ccc(C#N)cc1C(CC(=O)O)Cc1cc(OCCc2ccc3c(n2)NCCC3)n(C)n1 (stereo not shown) [Example 46, 3-(5-cyano-2-methoxyphenyl)-4-(1-methyl-5-(2-(5,6,7,8-tetrahydro-1,8-naphthyridin-2-yl)ethoxy)-1H-pyrazol-3-yl)butanoic Acid Trifluoroacetate] | 30 | 31 | 51 | 8.1 |  |  |  |  |
| COc1ccc(C(N)=O)cc1C(CC(=O)O)Cc1cc(OCCc2ccc3c(n2)NCCC3)n(C)n1 (stereo not shown) [Example 47, 3-(5-carbamoyl-2-methoxyphenyl)-4-(1-methyl-5-(2-(5,6,7,8-tetrahydro-1,8-naphthyridin-2-yl)ethoxy)-1H-pyrazol-3-yl)butanoic Acid trifluoroacetate] | 77 | 3.6 | 13 | 4.9 |  |  |  |  |
| COc1ccc(C(=O)O)cc1C(CC(=O)O)Cc1cc(OCCc2ccc3c(n2)NCCC3)n(C)n1 (stereo not shown) [Example 48, 3-(1-carboxy-3-(1-methyl-5-(2-(5,6,7,8-tetrahydro-1,8-naphthyridin-2-yl)ethoxy)-1H-pyrazol-3-yl)propan-2-yl)-4-methoxybenzoic Acid Trifluoroacetate] | 680 | 92 | 230 | 19 |  |  |  |  |
